The assay concerns the target ATR kinase (Homo sapiens (Human), UniProt Q13535). The assay is described as follows: ATR Inhibition Assay (radioactive-phosphate incorporation). As to conditions: Ki(app); 5 nM full-length ATR, 10 μM [γ-33P]ATP, 800 μM target peptide, 25° C. The assay is classed as biochemical. On the procedure: Compounds were screened for their ability to inhibit ATR kinase using a radioactive-phosphate incorporation assay. Assays were carried out in a mixture of 50 mM Tris/HCl (pH 7.5), 10 mM MgCl2 and 1 mM DTT. Final substrate concentrations were 10 μM [γ-33P]ATP (3mCi 33P ATP/mmol ATP, Perkin Elmer) and 800 μM target peptide (ASELPASQPQPFSAKKK).
Assays were carried out at 25° C. in the presence of 5 nM full-length ATR. An assay stock buffer solution was prepared containing all of the reagents listed above, with the exception of ATP and the test compound of interest. 13.5 μL of the stock solution was placed in a 96 well plate followed by addition of 2 μL of DMSO stock containing serial dilutions of the test compound (typically starting from a final concentration of 15 μM with 3-fold serial dilutions) in duplicate (final DMSO concentration 7%). The plate was pre-incubated for 10 minutes at 25° C. and the reaction initiated by addition of 15 μL [γ-33P]ATP (final concentration 10 μM).
The reaction was stopped after […] by the addition of 30 μL 0.1M phosphoric acid containing 2 mM ATP. […]
After removing mean background values for all of the data points, Ki(app) data were calculated from non-linear regression analysis of the initial rate data using the Prism software package (GraphPad Prism version 3.0cx for Macintosh, GraphPad Software, San Diego, Calif., USA).

ATR kinase, sequence (Q13535 whole entry): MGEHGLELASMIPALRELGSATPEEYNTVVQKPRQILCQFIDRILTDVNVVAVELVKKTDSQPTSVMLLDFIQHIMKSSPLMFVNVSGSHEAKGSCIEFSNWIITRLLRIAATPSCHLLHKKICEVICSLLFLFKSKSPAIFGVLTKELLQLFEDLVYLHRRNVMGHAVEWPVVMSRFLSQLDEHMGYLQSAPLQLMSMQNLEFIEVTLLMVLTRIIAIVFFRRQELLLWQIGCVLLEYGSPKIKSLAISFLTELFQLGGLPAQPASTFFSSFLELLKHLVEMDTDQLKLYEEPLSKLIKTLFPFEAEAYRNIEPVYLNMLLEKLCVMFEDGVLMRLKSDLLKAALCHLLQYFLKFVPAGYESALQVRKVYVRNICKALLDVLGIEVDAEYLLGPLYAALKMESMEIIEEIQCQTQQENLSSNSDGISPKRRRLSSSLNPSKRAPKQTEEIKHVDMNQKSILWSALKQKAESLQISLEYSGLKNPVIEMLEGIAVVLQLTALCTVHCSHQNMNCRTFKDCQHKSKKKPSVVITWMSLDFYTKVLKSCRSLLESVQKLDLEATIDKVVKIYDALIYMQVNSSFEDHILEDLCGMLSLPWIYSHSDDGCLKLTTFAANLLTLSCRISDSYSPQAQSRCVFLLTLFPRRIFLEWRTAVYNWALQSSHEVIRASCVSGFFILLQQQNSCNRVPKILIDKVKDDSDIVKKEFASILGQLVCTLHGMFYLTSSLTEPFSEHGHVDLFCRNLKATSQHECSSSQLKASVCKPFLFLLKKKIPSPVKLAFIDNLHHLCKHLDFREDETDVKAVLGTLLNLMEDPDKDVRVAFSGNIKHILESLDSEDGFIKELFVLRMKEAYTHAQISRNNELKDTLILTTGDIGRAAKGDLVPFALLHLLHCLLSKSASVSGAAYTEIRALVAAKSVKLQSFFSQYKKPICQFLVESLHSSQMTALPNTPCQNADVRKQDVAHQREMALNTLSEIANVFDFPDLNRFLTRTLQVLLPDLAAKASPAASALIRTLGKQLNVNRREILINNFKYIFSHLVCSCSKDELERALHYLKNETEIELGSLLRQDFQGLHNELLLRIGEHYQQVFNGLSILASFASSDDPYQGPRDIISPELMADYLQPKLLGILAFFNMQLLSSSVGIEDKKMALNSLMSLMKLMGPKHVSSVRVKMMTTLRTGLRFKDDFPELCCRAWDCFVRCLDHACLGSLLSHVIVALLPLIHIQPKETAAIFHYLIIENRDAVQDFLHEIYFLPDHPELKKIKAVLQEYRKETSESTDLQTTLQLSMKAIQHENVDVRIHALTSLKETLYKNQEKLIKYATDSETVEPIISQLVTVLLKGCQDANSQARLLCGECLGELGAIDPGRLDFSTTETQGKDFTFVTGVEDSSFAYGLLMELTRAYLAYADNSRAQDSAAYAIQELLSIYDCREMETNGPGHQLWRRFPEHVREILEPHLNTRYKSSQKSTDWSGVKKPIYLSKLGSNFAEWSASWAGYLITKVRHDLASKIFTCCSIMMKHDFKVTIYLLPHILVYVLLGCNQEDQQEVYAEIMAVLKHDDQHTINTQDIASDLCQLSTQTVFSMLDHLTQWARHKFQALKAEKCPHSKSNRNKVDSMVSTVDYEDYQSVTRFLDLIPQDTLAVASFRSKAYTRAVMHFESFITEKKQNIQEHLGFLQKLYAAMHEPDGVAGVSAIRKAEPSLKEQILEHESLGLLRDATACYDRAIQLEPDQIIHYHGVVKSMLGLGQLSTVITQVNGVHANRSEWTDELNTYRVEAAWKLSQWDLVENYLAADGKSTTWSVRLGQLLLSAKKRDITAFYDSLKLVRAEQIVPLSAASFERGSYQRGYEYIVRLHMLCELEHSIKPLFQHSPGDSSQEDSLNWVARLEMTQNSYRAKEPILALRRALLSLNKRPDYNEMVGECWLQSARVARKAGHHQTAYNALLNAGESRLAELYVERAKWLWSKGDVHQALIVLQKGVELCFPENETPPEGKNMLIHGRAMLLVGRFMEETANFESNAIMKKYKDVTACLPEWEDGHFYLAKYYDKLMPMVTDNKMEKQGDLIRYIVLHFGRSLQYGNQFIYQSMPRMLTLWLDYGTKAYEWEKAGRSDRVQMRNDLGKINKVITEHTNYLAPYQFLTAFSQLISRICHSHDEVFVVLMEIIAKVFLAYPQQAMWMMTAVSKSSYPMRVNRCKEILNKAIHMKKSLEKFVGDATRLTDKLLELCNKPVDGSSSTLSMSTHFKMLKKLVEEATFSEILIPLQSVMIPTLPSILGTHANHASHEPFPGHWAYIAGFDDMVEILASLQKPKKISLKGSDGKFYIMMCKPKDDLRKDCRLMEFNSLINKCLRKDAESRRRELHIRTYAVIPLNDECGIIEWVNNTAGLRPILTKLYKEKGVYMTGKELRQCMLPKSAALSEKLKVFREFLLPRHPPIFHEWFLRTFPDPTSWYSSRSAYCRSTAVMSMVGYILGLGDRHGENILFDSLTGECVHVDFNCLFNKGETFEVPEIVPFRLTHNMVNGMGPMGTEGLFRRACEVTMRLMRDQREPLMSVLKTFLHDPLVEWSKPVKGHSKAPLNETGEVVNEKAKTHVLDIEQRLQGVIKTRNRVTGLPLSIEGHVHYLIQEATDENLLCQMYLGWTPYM

For the molecule `CC(C)S(=O)(=O)c1ccc(-c2cnc(N)c(C3CC(c4ccccc4)=NO3)n2)cc1` (stereo not shown) [Compound I-1, 5-(4-(isopropylsulfonyl)phenyl)-3-(3-phenyl-4,5-dihydroisoxazol-5-yl)pyrazin-2-amine], the Ki was 16 nM.
